One may read the IC50 as the concentration that gives 50% inhibition. Read a low IC50 as greater potency in that assay.

Among the data in US10759793B2, “2-(pyrazolopyridin-3-yl)pyrimidine derivatives as JAK inhibitors” (ALMIRALL, S.A., priority 2015, dated 2020) are IC50 values, retold here.

Format in all cases: biochemical
Experiment [1] deals with JAK3 (Homo sapiens (Human), UniProt P52333). Description: In vitro JAK kinase assay (TR-FRET), JAK3. Particulars: catalytic domain aa 795-1124, GST-fusion; ATP 0.6 μM; peptide 140 nM; 30 minutes at room temperature. An outline of the steps:
(§1)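 Each human JAK enzyme assayed on biotinylated poly(GT) peptide substrate, reaction 30 min at room temperature. Phosphorylation detected by TR-FRET after a 3 h detection incubation.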
(Time-resolved FRET reads energy transfer from a long-lived donor to a nearby acceptor.)

The target of experiment [2] is JAK2 (Homo sapiens (Human), UniProt O60674). Description: In vitro JAK kinase assay (TR-FRET), JAK2. Particulars: catalytic domain aa 826-1132, GST-fusion; ATP 0.2 μM; peptide 20 nM; 30 minutes at room temperature. An outline of the steps: as §1
Experiment [3] deals with JAK1 (Homo sapiens (Human), UniProt P23458). Briefly: In vitro JAK kinase assay (TR-FRET), JAK1. Particulars: catalytic domain aa 850-1154, GST-fusion; ATP 3 μM; peptide 60 nM; 30 minutes at room temperature. In short, it runs like this:
as §1

Chain of JAK2 (O60674 826-1132): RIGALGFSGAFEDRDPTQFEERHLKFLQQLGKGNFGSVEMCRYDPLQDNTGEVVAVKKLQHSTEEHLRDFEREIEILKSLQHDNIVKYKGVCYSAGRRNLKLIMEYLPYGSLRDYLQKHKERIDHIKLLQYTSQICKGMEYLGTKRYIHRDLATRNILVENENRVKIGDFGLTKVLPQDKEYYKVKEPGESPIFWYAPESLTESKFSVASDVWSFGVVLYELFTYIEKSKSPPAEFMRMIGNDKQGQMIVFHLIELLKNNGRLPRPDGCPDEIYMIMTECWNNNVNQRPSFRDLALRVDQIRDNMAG
Chain of JAK1 (P23458 850-1154): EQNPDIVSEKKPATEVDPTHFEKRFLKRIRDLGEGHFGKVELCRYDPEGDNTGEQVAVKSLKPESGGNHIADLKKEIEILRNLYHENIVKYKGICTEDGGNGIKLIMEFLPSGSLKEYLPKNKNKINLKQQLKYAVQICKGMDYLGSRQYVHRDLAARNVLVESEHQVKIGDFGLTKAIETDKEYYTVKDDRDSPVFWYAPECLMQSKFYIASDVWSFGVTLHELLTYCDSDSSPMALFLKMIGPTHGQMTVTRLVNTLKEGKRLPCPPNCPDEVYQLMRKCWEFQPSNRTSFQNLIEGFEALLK
Chain of JAK3 (P52333 795-1124): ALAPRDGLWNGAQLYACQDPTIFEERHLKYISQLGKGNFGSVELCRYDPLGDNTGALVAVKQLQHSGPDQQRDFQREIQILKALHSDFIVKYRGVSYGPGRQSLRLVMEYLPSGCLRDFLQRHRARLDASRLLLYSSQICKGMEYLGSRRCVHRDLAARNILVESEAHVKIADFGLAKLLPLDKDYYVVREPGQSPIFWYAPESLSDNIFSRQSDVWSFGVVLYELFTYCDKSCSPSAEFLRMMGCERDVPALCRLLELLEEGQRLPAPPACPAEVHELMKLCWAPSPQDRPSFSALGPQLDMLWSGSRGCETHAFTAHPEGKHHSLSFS

For the molecule `CCOC(=O)c1nc(-c2cnn3ccccc23)nc(N[C@@H]2CCCN(C(=O)CO)C2)c1F` [Example 46, Ethyl 5-fluoro-6-{[(3R)-1-glycoloylpiperidin-3-yl]amino}-2-pyrazolo[1,5-a]pyridin-3-ylpyrimidine-4-carboxylate], the IC50 amounted to 4 nM in experiment [1], 3 nM in experiment [2] and 10 nM in experiment [3].
In the case of `N#Cc1nc(-c2cnn3ccccc23)nc(N[C@@H]2CCCN(C(=O)CO)C2)c1F` [Example 47, 5-Fluoro-6-{[(3R)-1-glycoloylpiperidin-3-yl]amino}-2-pyrazolo[1,5-a]pyridin-3-ylpyrimidine-4-carbonitrile], the values for the IC50 in experiment [1], in experiment [2] and in experiment [3] were 12 nM, 4 nM and 10 nM, respectively.
For `O=C(CO)N1CCC[C@@H](Nc2nc(-c3cnn4ccccc34)nc(OCC(F)(F)F)c2F)C1` [Example 49, 2-((3R)-3-{[5-Fluoro-2-pyrazolo[1,5-a]pyridin-3-yl-6-(2,2,2-trifluoroethoxy)pyrimidin-4-yl]amino}piperidin-1-yl)-2-oxoethanol], in that order: 14 nM, 10 nM and 35 nM.
For `O=C(CO)N1CCC[C@@H](Nc2nc(-c3cnn4ccccc34)nc(OCC(F)F)c2F)C1` [Example 50, 2-((3R)-3-{[6-(2,2-Difluoroethoxy)-5-fluoro-2-pyrazolo[1,5-a]pyridin-3-ylpyrimidin-4-yl]amino}piperidin-1-yl)-2-oxoethanol], in that order: 9 nM, 3 nM and 15 nM.
In the case of `CC(C)Oc1nc(-c2cnn3ccccc23)nc(N[C@@H]2CCCN(C(=O)CO)C2)c1F` [Example 51, 2-{(3R)-3-[(5-Fluoro-6-isopropoxy-2-pyrazolo[1,5-a]pyridin-3-ylpyrimidin-4-yl)amino]piperidin-1-yl}-2-oxoethanol], the IC50 in experiment [1] was found to be 3 nM; in experiment [2] it was 2 nM; in experiment [3], 36 nM.
As to `O=C(CO)N1CCC[C@@H](Oc2nc(-c3cnn4ccccc34)nc(N3CCOCC3)c2F)C1` [Example 52, 2-{(3R)-3-[(5-Fluoro-6-morpholin-4-yl-2-pyrazolo[1,5-a]pyridin-3-ylpyrimidin-4-yl)oxy]piperidin-1-yl}-2-oxoethanol], the IC50 in experiment [1] turned out to be 11 nM; in experiment [2], 1 nM; in experiment [3] it was 11 nM.
With `N#CCC(=O)N1CCC[C@@H](Oc2nc(-c3cnn4ccccc34)nc(N3CCOCC3)c2F)C1` [Example 53, 3-{(3R)-3-[(5-fluoro-6-morpholin-4-yl-2-pyrazolo[1,5-a]pyridin-3-ylpyrimidin-4-yl)oxy]piperidin-1-yl}-3-oxopropanenitrile], the IC50 came out at 3 nM in experiment [1], 0.5 nM in experiment [2] and 2 nM in experiment [3].
For the molecule `COc1nc(-c2cnn3ccccc23)nc(N[C@@H]2CCCN(c3cnc(C#N)cn3)C2)c1F` [Example 56, 5-{(3R)-3-[(5-fluoro-6-methoxy-2-pyrazolo[1,5-a]pyridin-3-ylpyrimidin-4-yl)amino]piperidin-1-yl}pyrazine-2-carbonitrile], the IC50 in experiment [1] turned out to be 8 nM; in experiment [2], 7 nM; in experiment [3] it was 43 nM.
Consider `N#Cc1cnc(N2CCC[C@@H](Nc3nc(-c4cnn5ccccc45)nc(OCCO)c3F)C2)nc1` [Example 57, 2-((3R)-3-{[5-fluoro-6-(2-hydroxyethoxy)-2-pyrazolo[1,5-a]pyridin-3-ylpyrimidin-4-yl]amino}piperidin-1-yl)pyrimidine-5-carbonitrile], for which the results for the IC50 in experiment [1], in experiment [2] and in experiment [3] were 2 nM, 2 nM and 19 nM, respectively.
For the molecule `COC[C@H](C)Oc1nc(-c2cnn3ccccc23)nc(N[C@@H]2CCCN(C(=O)CO)C2)c1F` [Example 58, 2-[(3R)-3-({5-Fluoro-6-[(1S)-2-methoxy-1-methylethoxy]-2-pyrazolo[1,5-a]pyridin-3-ylpyrimidin-4-yl}amino)piperidin-1-yl]-2-oxoethanol], the half-maximal inhibitory concentration (IC50) in experiment [1] turned out to be 7 nM; in experiment [2], 2 nM; in experiment [3], 66 nM.
With `C[C@@H](CO)Oc1nc(-c2cnn3ccccc23)nc(N[C@@H]2CCCN(C(=O)CO)C2)c1F` [Example 59, (2S)-2-[(5-Fluoro-6-{[(3R)-1-glycoloylpiperidin-3-yl]amino}-2-pyrazolo[1,5-a]pyridin-3-ylpyrimidin-4-yl)oxy]propan-1-ol], the figures for the IC50 in experiment [1], in experiment [2] and in experiment [3] were 4 nM, 3 nM and 29 nM, respectively.
Consider `COC[C@@H](C)Oc1nc(-c2cnn3ccccc23)nc(N[C@@H]2CCCN(C(=O)CO)C2)c1F` [Example 60, 2-[(3R)-3-({5-Fluoro-6-[(1R)-2-methoxy-1-methylethoxy]-2-pyrazolo[1,5-a]pyridin-3-ylpyrimidin-4-yl}amino)piperidin-1-yl]-2-oxoethanol], for which the IC50 in experiment [1] worked out at 16 nM; in experiment [2], 7 nM; in experiment [3], 110 nM.
As for `C[C@H](CO)Oc1nc(-c2cnn3ccccc23)nc(N[C@@H]2CCCN(C(=O)CO)C2)c1F` [Example 61, (2R)-2-[(5-Fluoro-6-{[(3R)-1-glycoloylpiperidin-3-yl]amino}-2-pyrazolo[1,5-a]pyridin-3-ylpyrimidin-4-yl)oxy]propan-1-ol], the figures for the IC50 in experiment [1], in experiment [2] and in experiment [3] were 8 nM, 10 nM and 58 nM, respectively.
Consider `O=C(CO)N1CCC[C@@H](Nc2nc(-c3cnn4ccccc34)nc(-c3cccnc3)c2F)C1` [Example 62, 2-{(3R)-3-[(5-Fluoro-2-pyrazolo[1,5-a]pyridin-3-yl-6-pyridin-3-ylpyrimidin-4-yl)amino]piperidin-1-yl}-2-oxoethanol], for which the IC50 was determined as 7 nM in experiment [1], 1 nM in experiment [2] and 4 nM in experiment [3].
Consider `COc1nc(-c2cnn3ccccc23)nc(O[C@@H]2CCCN(C(=O)CO)C2)c1F` [Example 63, 2-{(3R)-3-[(5-Fluoro-6-methoxy-2-pyrazolo[1,5-a]pyridin-3-ylpyrimidin-4-yl)oxy]piperidin-1-yl}-2-oxoethanol], for which the IC50 worked out at 9 nM in experiment [1], 3 nM in experiment [2] and 127 nM in experiment [3].
On to `COc1nc(-c2cnn3ccccc23)nc(O[C@@H]2CCCN(C(=O)CC#N)C2)c1F` [Example 64, 3-{(3R)-3-[(5-Fluoro-6-methoxy-2-pyrazolo[1,5-a]pyridin-3-ylpyrimidin-4-yl)oxy]piperidin-1-yl}-3-oxopropanenitrile], for which the IC50 amounted to 4 nM in experiment [1], 3 nM in experiment [2] and 28 nM in experiment [3].
Take `O=C(CO)N1CCC[C@@H](Oc2nc(-c3cnn4ccccc34)nc(OCCO)c2F)C1` [Example 65, 2-((3R)-3-{[5-Fluoro-6-(2-hydroxyethoxy)-2-pyrazolo[1,5-a]pyridin-3-ylpyrimidin-4-yl]oxy}piperidin-1-yl)-2-oxoethanol]: the IC50 in experiment [1] is 9 nM; in experiment [2] it was 2 nM; in experiment [3], 38 nM.
The matching figures for `CN1CCN(c2nc(-c3cnn4ccccc34)nc(O[C@@H]3CCCN(C(=O)CO)C3)c2F)CC1` [Example 67, 2-((3R)-3-{[5-Fluoro-6-(4-methylpiperazin-1-yl)-2-pyrazolo[1,5-a]pyridin-3-ylpyrimidin-4-yl]oxy}piperidin-1-yl)-2-oxoethanol]: 23 nM, 5 nM and 139 nM.
In the case of `CN1CCN(c2nc(-c3cnn4ccccc34)nc(O[C@@H]3CCCN(C(=O)CC#N)C3)c2F)CC1` [Example 68, 3-((3R)-3-{[5-Fluoro-6-(4-methylpiperazin-1-yl)-2-pyrazolo[1,5-a]pyridin-3-ylpyrimidin-4-yl]oxy}piperidin-1-yl)-3-oxopropanenitrile], the IC50 in experiment [1] came to 6 nM; in experiment [2], 1 nM; in experiment [3] it was 48 nM.
Turning to `O=C(CO)N1CCC[C@@H](Oc2nc(-c3cnn4ccccc34)nc(NCCO)c2F)C1` [Example 69, 2-[(3R)-3-({5-Fluoro-6-[(2-hydroxyethyl)amino]-2-pyrazolo[1,5-a]pyridin-3-ylpyrimidin-4-yl}oxy)piperidin-1-yl]-2-oxoethanol], the IC50 in experiment [1] worked out at 11 nM; in experiment [2], 3 nM; in experiment [3] it was 37 nM.
Turning to `N#CCC(=O)N1CCC[C@@H](Oc2nc(-c3cnn4ccccc34)nc(NCCO)c2F)C1` [Example 70, 3-[(3R)-3-({5-Fluoro-6-[(2-hydroxyethyl)amino]-2-pyrazolo[1,5-a]pyridin-3-ylpyrimidin-4-yl}oxy)piperidin-1-yl]-3-oxopropanenitrile], the results for the IC50 in experiment [1], in experiment [2] and in experiment [3] were 8 nM, 3 nM and 28 nM, respectively.
The matching figures for `Cc1cc(-c2nc(-c3cnn4ccccc34)nc(O[C@@H]3CCCN(C(=O)CO)C3)c2F)ccn1` [Example 71, 2-((3R)-3-{[5-Fluoro-6-(2-methylpyridin-4-yl)-2-pyrazolo[1,5-a]pyridin-3-ylpyrimidin-4-yl]oxy}piperidin-1-yl)-2-oxoethanol]: 26 nM, 2 nM and 35 nM.
Consider `Cc1cc(-c2nc(-c3cnn4ccccc34)nc(O[C@@H]3CCCN(C(=O)CC#N)C3)c2F)ccn1` [Example 72, 3-((3R)-3-{[5-Fluoro-6-(2-methylpyridin-4-yl)-2-pyrazolo[1,5-a]pyridin-3-ylpyrimidin-4-yl]oxy}piperidin-1-yl)-3-oxopropanenitrile], for which the IC50 turned out to be 6 nM in experiment [1], 1 nM in experiment [2] and 6 nM in experiment [3].
